Assays:
[1] = system: ERK phosphorylation; test: Analysis of ERK phosphorylation (Alphascreen SureFire Phospho-ERK 1/2); format: cell-based, human and mouse; conditions: cells treated for 1 h; human melanoma cells, human and mouse colon cancer cells; read-out: Minimum concentration (nM) required for ≧80% inhibition of pERK
Description: This assay was carried out with human melanoma cells, human and mouse colon cancer cells. Cells were treated for 1 h with various concentrations of test compounds. ERK phosphorylation analysis was performed using the Alphascreen SureFire Phospho-ERK 1/2 Kit (Perkin Elmer), by following the manufacturer's instructions. % inhibition of ERK phosphorylation was determined as: 100−{(RFU test−RFU lysis buffer control)/(RFU vehicle treated control−RFU lysis buffer control)}×100. Percentage inhibition at concentrations of 0.01 nM, 0.03 nM, 0.1-0.9 nM, 1 nM to 3 nM, 4-100 nM, and >100 nM, for the stated examples is setworth here. The percentage inhibition at the above depicted concentrations for the compounds stated are given in the following groups.

[2] = system: MEK phosphorylation (S218 and S222); test: Analysis of B-Raf-mediated MEK phosphorylation (Alphascreen SureFire Phospho-MEK); format: cell-based, human; conditions: read-out: % Inhibition of MEK phosphorylation, human melanoma cells, 1 h, read-out: % Inhibition of MBK phosphorylation; for inhibition at 0.001 µM: 1 nM; for inhibition at 0.01 µM: 10 nM; for inhibition at 0.1 µM: 100 nM
Description: This assay was carried out with human melanoma cells. Cells were treated for 1 h with various concentrations of test compounds. MEK phosphorylation (S218 and S222) analysis was performed using the Alphascreen SureFire Phospho-MEK Kit (Perkin Elmer), by following the manufacturer's instructions. % inhibition of […] phosphorylation was determined as: 100−{(RFU test−RFU lysis buffer control)/(RFU vehicle treated control−RFU lysis buffer control)}×100.

With Cc1c(=O)n(C)c(Nc2ccc(I)cc2F)c2c(=O)[nH]c(=O)n(-c3cccc(C(=O)NC4CC4)c3)c12 [Compound 2, N-cyclopropyl-3-(5-((2-fluoro-4-iodophenyl)amino)-6,8-dimethyl-2,4,7-trioxo-3,4,6,7-tetrahydropyrido[4,3-d]pyrimidin-1(2H)-yl)benzamide] as the compound, how does the IC80 [1] read?
The IC80 was 0.01 nM.

What about the inhibition at 0.001 µM [2] of the same compound?
Its inhibition at 0.001 µM is 72.2%.

What about the inhibition at 0.01 µM [2] of the same compound?
Its inhibition at 0.01 µM is 93.4%.

What about the inhibition at 0.1 µM [2] of the same compound?
Its inhibition at 0.1 µM is 96.4%.

Which IC80 [1] does the source give for CNC(=O)COc1cccc(-n2c(=O)[nH]c(=O)c3c(Nc4ccc(I)cc4F)n(C)c(=O)c(C)c32)c1 [Compound 5, 2-(3-(5-((2-fluoro-4-iodophenyl)amino)-6,8-dimethyl-2,4,7-trioxo-3,4,6,7-tetrahydropyrido[4,3-d]pyrimidin-1(2H)-yl)phenoxy)-N-methylacetamide] here?
Its IC80 is 0.1 to 0.9 nM.

What about the inhibition at 0.001 µM [2] of the same compound?
The inhibition at 0.001 µM was 93.9%.

What about the inhibition at 0.01 µM [2] of the same compound?
Its inhibition at 0.01 µM is 97.4%.

And the inhibition at 0.1 µM [2]?
The inhibition at 0.1 µM was 97.4%.

Which IC80 [1] does the source give for Cc1c(=O)n(C)c(Nc2ccc(I)cc2F)c2c(=O)[nH]c(=O)n(-c3cccc(OCC(N)=O)c3)c12 [Compound 16, 2-(3-(5-((2-fluoro-4-iodophenyl)amino)-6,8-dimethyl-2,4,7-trioxo-3,4,6,7-tetrahydropyrido[4,3-d]pyrimidin-1(2H)-yl)phenoxy)acetamide] here?
Its IC80 is 1 to 3 nM.

And the inhibition at 0.001 µM [2]?
The inhibition at 0.001 µM was 89.2%.

What about the inhibition at 0.01 µM [2] of the same compound?
The inhibition at 0.01 µM was 93.3%.

What about the inhibition at 0.1 µM [2] of the same compound?
Its inhibition at 0.1 µM is 94.7%.

Cc1c(=O)n(C)c(Nc2ccc(I)cc2F)c2c(=O)n(C3CC3)c(=O)n(-c3cccc(CC(=O)N(C)C)c3)c12 [Compound 29, 2-(3-(3-cyclopropyl-5-((2-fluoro-4-iodophenyl)amino)-6,8-dimethyl-2,4,7-trioxo-3,4,6,7-tetrahydropyrido[4,3-d]pyrimidin-1(2H)-yl)phenyl)-N,N-dimethylacetamide] was tested. Which IC80 [1] did it give?
The IC80 was 0.1 to 0.9 nM.

What about the inhibition at 0.001 µM [2] of the same compound?
Its inhibition at 0.001 µM is 52.9%.

What about the inhibition at 0.01 µM [2] of the same compound?
The inhibition at 0.01 µM was 72.9%.

And the inhibition at 0.1 µM [2]?
Its inhibition at 0.1 µM is 76.4%.

Cc1c(=O)n(C)c(Nc2ccc(I)cc2F)c2c(=O)n(C)c(=O)n(-c3cccc(CC(=O)NC4CC4)c3)c12 [Compound 58, N-cyclopropyl-2-(3-(5-((2-fluoro-4-iodophenyl)amino)-3,6,8-trimethyl-2,4,7-trioxo-3,4,6,7-tetrahydropyrido[4,3-d]pyrimidin-1(2H)-yl)phenyl)acetamide] was tested. Which IC80 [1] did it give?
Its IC80 is 1 to 3 nM.

Which IC80 [1] does the source give for CCn1c(=O)c2c(Nc3ccc(I)cc3F)n(C)c(=O)c(C)c2n(-c2cccc(CC(=O)NC3CC3)c2)c1=O [Compound 59, N-cyclopropyl-2-(3-(3-ethyl-5-((2-fluoro-4-iodophenyl)amino)-6,8-dimethyl-2,4,7-trioxo-3,4,6,7-tetrahydropyrido[4,3-d]pyrimidin-1(2H)-yl)phenyl)acetamide] here?
Its IC80 is 1 to 3 nM.

With CNC(=O)COc1cccc(-n2c(=O)n(C)c(=O)c3c(Nc4ccc(I)cc4F)n(C)c(=O)c(C)c32)c1 [Compound 60, 2-(3-(5-((2-fluoro-4-iodophenyl)amino)-3,6,8-trimethyl-2,4,7-trioxo-3,4,6,7-tetrahydropyrido[4,3-d]pyrimidin-1(2H)-yl)phenoxy)-N-methylacetamide] as the compound, how does the IC80 [1] read?
The IC80 was 0.1 to 0.9 nM.

Which IC80 [1] does the source give for CCn1c(=O)c2c(Nc3ccc(I)cc3F)n(C)c(=O)c(C)c2n(-c2cccc(CCC(N)=O)c2)c1=O [Compound 61, 3-(3-(3-ethyl-5-((2-fluoro-4-iodophenyl)amino)-6,8-dimethyl-2,4,7-trioxo-3,4,6,7-tetrahydropyrido[4,3-d]pyrimidin-1(2H)-yl)phenyl)propanamide] here?
Its IC80 is 1 to 3 nM.

How did the IC80 [1] turn out when CCn1c(=O)c2c(Nc3ccc(I)cc3F)n(C)c(=O)c(C)c2n(-c2cccc(C(=O)NC3CC3)c2)c1=O [Compound 62, N-cyclopropyl-3-(3-ethyl-5-((2-fluoro-4-iodophenyl)amino)-6,8-dimethyl-2,4,7-trioxo-3,4,6,7-tetrahydropyrido[4,3-d]pyrimidin-1(2H)-yl)benzamide] was run?
The IC80 was 4 to 100 nM.

For Cc1c(=O)n(C)c(Nc2ccc(I)cc2F)c2c(=O)n(C)c(=O)n(-c3cccc(C(=O)N4CCOCC4)c3)c12 [Compound 63, 5-((2-fluoro-4-iodophenyl)amino)-3,6,8-trimethyl-1-(3-(morpholine-4-carbonyl)phenyl)pyrido[4,3-d]pyrimidine-2,4,7(1H,3H,6H)-trione], which IC80 [1] is on record?
The IC80 was 1 to 3 nM.

How did the IC80 [1] turn out when Cc1c(=O)n(C)c(Nc2ccc(I)cc2F)c2c(=O)n(C)c(=O)n(-c3cccc(C(=O)N4CCS(=O)(=O)CC4)c3)c12 [Compound 65, 1-(3-(1,1-dioxidothiomorpholine-4-carbonyl)phenyl)-5-((2-fluoro-4-iodophenyl)amino)-3,6,8-trimethylpyrido[4,3-d]pyrimidine-2,4,7(1H,3H,6H)-trione] was run?
The IC80 was 0.1 to 0.9 nM.

Which IC80 [1] does the source give for CCn1c(=O)c2c(Nc3ccc(I)cc3F)n(C)c(=O)c(C)c2n(-c2cccc(C(=O)N3CCS(=O)(=O)CC3)c2)c1=O [Compound 66, 1-(3-(1,1-dioxidothiomorpholine-4-carbonyl)phenyl)-3-ethyl-5-((2-fluoro-4-iodophenyl)amino)-6,8-dimethylpyrido[4,3-d]pyrimidine-2,4,7(1H,3H,6H)-trione] here?
The IC80 was 0.01 nM.

For CCn1c(=O)c2c(Nc3ccc(I)cc3F)n(C)c(=O)c(C)c2n(-c2cccc(CC(=O)N(C)C)c2)c1=O [Compound 67, 2-(3-(3-ethyl-5-((2-fluoro-4-iodophenyl)amino)-6,8-dimethyl-2,4,7-trioxo-3,4,6,7-tetrahydropyrido[4,3-d]pyrimidin-1(2H)-yl)phenyl)-N,N-dimethylacetamide], which IC80 [1] is on record?
The IC80 was 0.1 to 0.9 nM.

How did the IC80 [1] turn out when Cc1c(=O)n(C)c(Nc2ccc(I)cc2F)c2c(=O)n(C)c(=O)n(-c3cccc(CCC(N)=O)c3)c12 [Compound 68, 3-(3-(5-((2-fluoro-4-iodophenyl)amino)-3,6,8-trimethyl-2,4,7-trioxo-3,4,6,7-tetrahydropyrido[4,3-d]pyrimidin-1(2H)-yl)phenyl)propanamide] was run?
The IC80 was 1 to 3 nM.

For Cc1c(=O)n(C)c(Nc2ccc(I)cc2F)c2c(=O)n(C(C)C)c(=O)n(-c3cccc(C(=O)NC4CC4)c3)c12 [Compound 69, N-cyclopropyl-3-(5-((2-fluoro-4-iodophenyl)amino)-3-isopropyl-6,8-dimethyl-2,4,7-trioxo-3,4,6,7-tetrahydropyrido[4,3-d]pyrimidin-1(2H)-yl)benzamide], which IC80 [1] is on record?
Its IC80 is greater than 100 nM.

Which IC80 [1] does the source give for Cc1c(=O)n(C)c(Nc2ccc(I)cc2F)c2c(=O)n(C3COC3)c(=O)n(-c3cccc(OCC(N)=O)c3)c12 [Compound 71, 2-(3-(5-((2-fluoro-4-iodophenyl)amino)-6,8-dimethyl-3-(oxetan-3-yl)-2,4,7-trioxo-3,4,6,7-tetrahydropyrido[4,3-d]pyrimidin-1(2H)-yl)phenoxy)acetamide] here?
Its IC80 is 4 to 100 nM.

How did the IC80 [1] turn out when Cc1c(=O)n(C)c(Nc2ccc(I)cc2F)c2c(=O)n(C(F)F)c(=O)n(-c3cccc(C(=O)NC4CC4)c3)c12 [Compound 72, N-cyclopropyl-3-(3-(difluoromethyl)-5-((2-fluoro-4-iodophenyl)amino)-6,8-dimethyl-2,4,7-trioxo-3,4,6,7-tetrahydropyrido[4,3-d]pyrimidin-1(2H)-yl)benzamide] was run?
Its IC80 is 4 to 100 nM.

How did the IC80 [1] turn out when Cc1c(=O)n(C)c(Nc2ccc(I)cc2F)c2c(=O)n(CC(O)CO)c(=O)n(-c3cccc(C(=O)NC4CC4)c3)c12 (stereo not shown) [Compound 73, N-cyclopropyl-3-(3-(2,3-dihydroxypropyl)-5-((2-fluoro-4-iodophenyl)amino)-6,8-dimethyl-2,4,7-trioxo-3,4,6,7-tetrahydropyrido[4,3-d]pyrimidin-1 (2H)-yl)benzamide] was run?
The IC80 was 4 to 100 nM.

With Cc1c(=O)n(C)c(Nc2ccc(I)cc2F)c2c(=O)n(CC(=O)O)c(=O)n(-c3cccc(C(=O)NC4CC4)c3)c12 [Compound 74, 2-(1-(3-(cyclopropylcarbamoyl)phenyl)-5-((2-fluoro-4-iodophenyl)amino)-6,8-dimethyl-2,4,7-trioxo-1,2,6,7-tetrahydropyrido[4,3-d]pyrimidin-3(4H)-yl)acetic acid] as the compound, how does the IC80 [1] read?
Its IC80 is greater than 100 nM.

Cc1c(=O)n(C)c(Nc2ccc(I)cc2F)c2c(=O)n(C)c(=O)n(-c3cccc([C@@H](O)C(N)=O)c3)c12 [Compound 75, (R)-2-(3-(5-((2-fluoro-4-iodophenyl)amino)-3,6,8-trimethyl-2,4,7-trioxo-3,4,6,7-tetrahydropyrido[4,3-d]pyrimidin-1(2H)-yl)phenyl)-2-hydroxyacetamide] was tested. Which IC80 [1] did it give?
The IC80 was 1 to 3 nM.

Which IC80 [1] does the source give for Cc1c(=O)n(C)c(Nc2ccc(I)cc2F)c2c(=O)n(C)c(=O)n(-c3cccc([C@H](O)C(N)=O)c3)c12 [Compound 76, (S)-2-(3-(5-((2-fluoro-4-iodophenyl)amino)-3,6,8-trimethyl-2,4,7-trioxo-3,4,6,7-tetrahydropyrido[4,3-d]pyrimidin-1(2H)-yl)phenyl)-2-hydroxyacetamide] here?
Its IC80 is 4 to 100 nM.

With Cc1c(=O)n(C)c(Nc2ccc(I)cc2F)c2c(=O)n(C)c(=O)n(-c3cccc(C4(C(N)=O)CC4)c3)c12 [Compound 79, 1-(3-(5-((2-fluoro-4-iodophenyl)amino)-3,6,8-trimethyl-2,4,7-trioxo-3,4,6,7-tetrahydropyrido[4,3-d]pyrimidin-1(2H)-yl)phenyl)cyclopropanecarboxamide] as the compound, how does the IC80 [1] read?
Its IC80 is 4 to 100 nM.
